From PubChem BioAssay AID2060884 (Molecular Pharmacology Branch, DTP, NCI, 2025)

System: NCI-H929 complex spheroids, viability % test/control
Assay: Anticancer human tumor NCI-H929 cell line growth inhibition [RAS];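 note: compound exposure lasted seven days before viability was read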;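 for viability, T/C: 100% = DMSO vehicle control viability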
Details: for IC50: curve of first compound; for viability, T/C: stronger effect = lower value
Summary of the method: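 Multi-cell-type spheroids: tumor cells plus HUVEC endothelial cells and mesenchymal stem cells. RAS-pathway inhibitors were combined with targeted agents, each dosed in half-log steps down from clinical Cmax, or from 10 microM when Cmax was unknown.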

CCc1c2c(nc3ccc(O)cc13)-c1cc3c(c(=O)n1C2)COC(=O)[C@]3(O)CC + C#Cc1c(F)ccc2cc(O)cc(-c3ncc4c(N5CC6CCC(C5)N6)nc(OCC56CCCN5CC(F)C6)nc4c3F)c12
IC50 (second compound 0.0316 µM): 1.88 nM | IC50 (second compound 0.1 µM): 1.97 nM | IC50 (second compound 0.316 µM): 1.83 nM | IC50 (second compound 1 µM): 1.85 nM | IC50 (second compound 3.16 µM): 1.83 nM | IC50 (second compound 10 µM): 1.7 nM | viability, T/C (second compound 0.0316 µM, first compound 0.000949 µM): 107% | viability, T/C (second compound 0.0316 µM, first compound 0.003 µM): 11.1% | viability, T/C (second compound 0.0316 µM, first compound 0.00949 µM): 1.08% | viability, T/C (second compound 0.0316 µM, first compound 0.03 µM): 1.06% | viability, T/C (second compound 0.0316 µM, first compound 0.0949 µM): 2.09% | viability, T/C (second compound 0.0316 µM, first compound 0.3 µM): 1.3% | viability, T/C (second compound 0.1 µM, first compound 0.000949 µM): 103% | viability, T/C (second compound 0.1 µM, first compound 0.003 µM): 19% | viability, T/C (second compound 0.1 µM, first compound 0.00949 µM): 1.39% | viability, T/C (second compound 0.1 µM, first compound 0.03 µM): 3.06% | viability, T/C (second compound 0.1 µM, first compound 0.0949 µM): 2.48% | viability, T/C (second compound 0.1 µM, first compound 0.3 µM): 0.71% | viability, T/C (second compound 0.316 µM, first compound 0.000949 µM): 103% | viability, T/C (second compound 0.316 µM, first compound 0.003 µM): 10.5% | viability, T/C (second compound 0.316 µM, first compound 0.00949 µM): 1.36% | viability, T/C (second compound 0.316 µM, first compound 0.03 µM): 2.4% | viability, T/C (second compound 0.316 µM, first compound 0.0949 µM): 1.35% | viability, T/C (second compound 0.316 µM, first compound 0.3 µM): 1.02% | viability, T/C (second compound 1 µM, first compound 0.000949 µM): 104% | viability, T/C (second compound 1 µM, first compound 0.003 µM): 11.1% | viability, T/C (second compound 1 µM, first compound 0.00949 µM): 1.18% | viability, T/C (second compound 1 µM, first compound 0.03 µM): 1.37% | viability, T/C (second compound 1 µM, first compound 0.0949 µM): 0.94% | viability, T/C (second compound 1 µM, first compound 0.3 µM): 0.76% | viability, T/C (second compound 3.16 µM, first compound 0.000949 µM): 104% | viability, T/C (second compound 3.16 µM, first compound 0.003 µM): 9.19% | viability, T/C (second compound 3.16 µM, first compound 0.00949 µM): 2.65% | viability, T/C (second compound 3.16 µM, first compound 0.03 µM): 1.69% | viability, T/C (second compound 3.16 µM, first compound 0.0949 µM): 1.26% | viability, T/C (second compound 3.16 µM, first compound 0.3 µM): 0.49% | viability, T/C (second compound 10 µM, first compound 0.000949 µM): 92% | viability, T/C (second compound 10 µM, first compound 0.003 µM): 9.27% | viability, T/C (second compound 10 µM, first compound 0.00949 µM): 1.7% | viability, T/C (second compound 10 µM, first compound 0.03 µM): 1.05% | viability, T/C (second compound 10 µM, first compound 0.0949 µM): 1.19% | viability, T/C (second compound 10 µM, first compound 0.3 µM): 0.41%

Nc1ccn(C2OC(CO)C(O)C2(F)F)c(=O)n1 (centres undefined) + C#Cc1c(F)ccc2cc(O)cc(-c3ncc4c(N5CC6CCC(C5)N6)nc(OCC56CCCN5CC(F)C6)nc4c3F)c12
IC50 (second compound 0.0316 µM): 18.2 nM | IC50 (second compound 0.1 µM): 18.5 nM | IC50 (second compound 0.316 µM): 18.5 nM | IC50 (second compound 1 µM): 18.1 nM | IC50 (second compound 3.16 µM): 18.5 nM | IC50 (second compound 10 µM): 17.8 nM | viability, T/C (second compound 0.0316 µM, first compound 0.00316 µM): 97.9% | viability, T/C (second compound 0.0316 µM, first compound 0.01 µM): 106% | viability, T/C (second compound 0.0316 µM, first compound 0.0316 µM): 1.73% | viability, T/C (second compound 0.0316 µM, first compound 0.1 µM): 1.71% | viability, T/C (second compound 0.0316 µM, first compound 0.316 µM): 1.77% | viability, T/C (second compound 0.0316 µM, first compound 1 µM): 0.97% | viability, T/C (second compound 0.1 µM, first compound 0.00316 µM): 99.5% | viability, T/C (second compound 0.1 µM, first compound 0.01 µM): 111% | viability, T/C (second compound 0.1 µM, first compound 0.0316 µM): 2.14% | viability, T/C (second compound 0.1 µM, first compound 0.1 µM): 1.9% | viability, T/C (second compound 0.1 µM, first compound 0.316 µM): 0.95% | viability, T/C (second compound 0.1 µM, first compound 1 µM): 1.51% | viability, T/C (second compound 0.316 µM, first compound 0.00316 µM): 102% | viability, T/C (second compound 0.316 µM, first compound 0.01 µM): 106% | viability, T/C (second compound 0.316 µM, first compound 0.0316 µM): 2.97% | viability, T/C (second compound 0.316 µM, first compound 0.1 µM): 2.03% | viability, T/C (second compound 0.316 µM, first compound 0.316 µM): 1.39% | viability, T/C (second compound 0.316 µM, first compound 1 µM): 1.19% | viability, T/C (second compound 1 µM, first compound 0.00316 µM): 97.4% | viability, T/C (second compound 1 µM, first compound 0.01 µM): 105% | viability, T/C (second compound 1 µM, first compound 0.0316 µM): 1.48% | viability, T/C (second compound 1 µM, first compound 0.1 µM): 1.24% | viability, T/C (second compound 1 µM, first compound 0.316 µM): 0.95% | viability, T/C (second compound 1 µM, first compound 1 µM): 0.85% | viability, T/C (second compound 3.16 µM, first compound 0.00316 µM): 97.4% | viability, T/C (second compound 3.16 µM, first compound 0.01 µM): 108% | viability, T/C (second compound 3.16 µM, first compound 0.0316 µM): 3.7% | viability, T/C (second compound 3.16 µM, first compound 0.1 µM): 1.57% | viability, T/C (second compound 3.16 µM, first compound 0.316 µM): 1.67% | viability, T/C (second compound 3.16 µM, first compound 1 µM): 1.18% | viability, T/C (second compound 10 µM, first compound 0.00316 µM): 102% | viability, T/C (second compound 10 µM, first compound 0.01 µM): 97.2% | viability, T/C (second compound 10 µM, first compound 0.0316 µM): 2.56% | viability, T/C (second compound 10 µM, first compound 0.1 µM): 1.28% | viability, T/C (second compound 10 µM, first compound 0.316 µM): 1.24% | viability, T/C (second compound 10 µM, first compound 1 µM): 0.87%
